Assay results as given in US20150010644A1, “OXYGENATION OF THE MUCOSAL BARRIER BY ENTERAL ARTIFICIAL BLOOD TO PREVENT HYPOXIC BREAKDOWN OF THE MUCOSAL BARRIER” (THE REGENTS OF THE UNIVERSITY OF CALIFORNIA, priority 2011, published 2015).
Entries after “also recorded” stand apart in the source; their conditions may differ.

Columns and labels:
[1] = tested on: trypsin activity in the intestinal wall; assay: In-situ zymography for trypsin activity in jejunal cryosections, rat splanchnic arterial occlusion (SAO) model; format: in vivo; conditions: lumenal injection 30 min prior
Experimental: (§1) Male Wistar rats (250-300 g, Harlan Sprague Dawley Inc, Indianapolis, Ind.) were randomly assigned to each group (n=4 per group). Rats were kept on solid food restriction for 12 hours prior to surgery with water ad libitum. […] Sham groups were treated the same with the arteries separated but not ligated.
Control groups: Animals with saline injection into the lumen of the intestine, 3 ml/100 g Body Weight (BW), 30 min prior to SHAM or SAO surgery.
(§2) Perfluorocarbon groups: Perfluorodecalin (PFC) (Sigma-Aldrich, St Louis, Mo.) with oxygen, previously bubbled into the solution for 10 min, was injected into the lumen of the intestine 30 min prior SHAM or SAO surgery (SHAM+PFC+O2, SAO+PFC+O2). PFC without oxygen bubbled into the solution was injected 30 min prior SHAM or SAO surgery (SHAM+PFC, SAO+PFC).
ATP-MgCl2 groups: ATP-MgCl2 (Sigma-Aldrich), 25 mg/kg BW was injected in the lumen of the intestine 30 min prior to SHAM or SAO surgery (SHAM+ATP, SAO+ATP). […]
After 30 min SAO or sham surgery, the animals were euthanized (Beuthanasia®; 0.22 ml/kg BW, IV).
(§3) Tissue cryosections: After euthanasia, jejunal sections (˜1 cm in length) were excised without removal of lumenal contents and suspended in Tissue-Tek O.C.T. Compound (Sakura Finetek, Torrance, Calif.), snap frozen in isopentane/liquid nitrogen, and stored at −80° C. for analysis. Cryosections (5 μm thickness) along the longitudinal axis of the villi were used throughout all experiments. Cryosections were fixed in 10% formalin solution and processed in a non-blinded fashion.
In-situ tissue zymography: In-situ zymography for trypsin activity in cryosections was assessed by measurement of fluorescence resulting from the proteolytic cleavage of the substrate (1 mM, Na-benzoyl-L-arginine-7-amido-methylcoumarin hydrochloride; Sigma-Aldrich) as described elsewhere with propidium iodine counterstaining (Sigma-Aldrich) (9). Slides were observed under an inverted microscope (20× and 60× objectives).

mucin2 [2] = assay: Mucin2 fluorescent staining of jejunal sections, rat SAO model; format: in vivo; conditions: SAO 30 min, lumenal injection 30 min prior; for villi injury / villus structure: micrographs
Experimental: as §1, §2
(§4) ATP-MgCl2 groups: ATP-MgCl2 (Sigma-Aldrich), 25 mg/kg BW was injected in the lumen of the intestine 30 min prior to SHAM or SAO surgery (SHAM+ATP, SAO+ATP).
(§5) pH groups: Acidic saline (pH 5.5) injected in the lumen of the intestine 30 min prior SHAM surgery or HEPES buffer (20 mM) injected into the lumen of the intestine 30 min prior to SHAM or SAO surgery.
(§6) Free radicals groups: The hydroxyl radical scavenger, dimethylthiourea (DMTU, Sigma-Aldrich; 2.0 mg/g BW) was injected in the lumen of the intestine 30 min prior to SAO (SAO+DMTU).
as §3
(§7) Mucin and lectin staining: The simultaneous visualization of lectins and mucin was carried out using Lectin GS-II from Griffonia simplicifolia, Alexa Fluor® 594 Conjugate (EnzChek®, Invitrogen, Carlsbad, Calif.) and specific antibody for mucin2 with FITC secondary antibody 1:10000 (Santa Cruz Biotechnology) and nuclei counterstaining with DAPI. Sections were observed on an inverted microscope (20× objective) using the appropriate fluorescent filters.

[3] = tested on: lectin staining (carbohydrate portion of mucin); assay: Lectin fluorescent staining (carbohydrate portion of mucin) of jejunal sections, rat SAO model; format: in vivo; conditions: SAO 30 min; lumenal injection 30 min prior
Experimental: as §1, §2, §4, §5, §6, §3, §7

mucin2 [4] = assay: Western blot for mucin2 of intestine homogenates, rat SAO model; format: in vivo; conditions: SAO 30 min, lumenal injection 30 min prior
Experimental: as §1, §2, §4, §5, §6
(§8) Homogenates of intestine and lumenal contents: Jejunal segments were excised without removal of lumenal contents. For enzyme activity measurements, segments of intestine were homogenized with CelLytic™ (Sigma-Aldrich) without addition of protease inhibitors. For Western blot assays the intestine segments were homogenized as above in the presence of protease inhibitors (5 mM EDTA, 5 mM N-Ethylmaleimide, 25 mM iodoacetamide, 5 mM benzamidine, 300 mM acarbose, 5 mM 6-aminocaproic acid, 1 mM protease inhibitor cocktail, (Sigma-Aldrich). In separate experiments the small intestine of sham animals was excised, and the lumenal contents were flushed with 20 ml saline. Homogenates or lumenal contents were centrifuged (16,000 g for 15 min at 4° C.), the supernatant was collected and protein concentration was assessed with the bicinchoninic acid protein assay (Thermo Scientific).
(§9) Western blot: 20 μg of tissue homogenate were separated by SDS-PAGE. Membranes were incubated with primary antibodies as follows: mucin2, mucin13 and trypsin 1:1000 (Santa Cruz Biotechnology), pancreatic amylase 1:1000 (GeneTex, San Antonio, Tex.), intra- and extra-cellular domains of E-cadherin and TLR4 1:1000 (Abcam), intracellular domain of TLR4 1:1000 (Invitrogen). Secondary antibodies were diluted 1:20000 (Santa Cruz Biotechnology) and detected with Super Signal West Pico (Thermo Scientific). The exposed x-ray films were scanned and label intensity was measured using digital gel analysis (NIH ImageJ software).

mucin13 = assay: Western blot for mucin13 of intestine homogenates, rat SAO model; format: in vivo; conditions: SAO 30 min, lumenal injection 30 min prior
Experimental: as §1, §2, §4, §5, §6, §8, §9

intestinal villi hypoxia = assay: Hypoxia staining (pimonidazole, Hypoxyprobe-1) of intestinal villi, rat SAO model; format: in vivo; conditions: SAO 30 min; lumenal injection 30 min prior
Experimental: as §1, §2, §4, §5, §6
Hypoxia staining: In separate experiments tissue hypoxia was detected with Hypoxyprobe™-1 Kit (Natural Pharmacia International, Burlington, Mass., USA). This method utilizes a small molecular marker, pimonidazole, which after intravenous injection forms adducts with thiol containing proteins only in oxygen-starved cells. After general anesthesia as described above, pimonidazole-HCl (6 mg/100 g) was injected intravenously 30 min before SAO or SHAM; at 30 min the animal was euthanized and the jejuna section removed, embedded in O.C.T and frozen in liquid nitrogen. Then cryosections were immunostained using a rabbit antibody that binds to protein adducts of pimonidazole in hypoxic cells.

[5] = tested on: ATP concentration in intestine homogenates; assay: ATP assay in intestine homogenates, rat SAO model; format: in vivo; conditions: SAO 30 min; lumenal injection 30 min prior
Experimental: as §1, §2, §4, §5, §6
ATP assay: ATP concentrations in intestine homogenates were measured using ATP fluorometirc assay kit (BioVision, Mountain View, Calif.) according to manufacturer's protocol. Briefly jejuna sections were homogenized with perchloric acid (BioVision), centrifuged at 15,000×G for 5 min at 4° C. Samples were mixed with ATP reaction mix, incubated for 30 min protected from light and the fluorescence was measured with 535/587 (Ex/Em).

[6] = tested on: MDA equivalents (TBARS) in jejunal homogenates; assay: Thiobarbituric Acid Reactive Substances (TBARS) assay, rat SAO model; format: in vivo; conditions: SAO 30 min; lumenal injection 30 min prior
Experimental: as §1, §2, §4
pH groups: Acidic saline (pH 5.5) injected in the lumen of the intestine 30 min prior SHAM surgery or HEPES buffer (20 mM) injected into the lumen of the intestine 30 min prior to SHAM or SAO surgery. […]
TBARS assay: Thiobarbituric Acid Reactive Substances (TBARS) was measured using the TBARS assay kit (Zeptometrix, Buffalo, N.Y.) according to manufacturer's protocol. […] Samples were centrifuged at 3000 rpm for 15 min and the supernatant were read at 530/550 (Ex/Em).

ischemic intestine = assay: Rat model with severe ischemic intestine (30 min ischemia), enteral oxygen carrier; format: in vivo; conditions: 7 ml for 230 g rat, saturated for 10 min in oxygen
Experimental: The case was illustrated in a model with 30 min ischemia with Perfluorodecalin solution (7 ml for 230 g rat) saturated for 10 min in oxygen.

IEC-18 cells = assay: FITC-dextran permeability of IEC-18 cells on Transwell plates with and without mucin film; format: cell-based; conditions: trypsin 50 μM
Experimental: (§10) To investigate whether mucin provides a barrier against trypsin transport, IEC-18 cells (on Transwell plates) were coated with and without a mucin film (400 μm, 10%, porcine stomach). FITC-dextrans (20 kDa, 5 mg/ml) with and without trypsin (50 μM) was added to the apical side and the rate of FITC accumulation on the basal side over 60 min was measured. To determine if trypsin cleaves the adherent junctions of the epithelium, it was measured by Western blot the levels of intra- and extracellular domains of E-cadherin. […] Thus, mucin protects against trypsin-mediated increases in intestinal epithelial permeability.

E-cadherin = assay: Western blot of intra- and extracellular domains of E-cadherin in IEC-18 cells; format: cell-based; conditions: trypsin 50 μM
Experimental: as §10

[7] = listed as deoxygenated perfluorcarbon

For `CNC(=S)NC` [DMTU, dimethylthiourea, reference compound], the “trypsin activity in the intestinal wall” value ([1]; SAO 30 min) was “undetectable levels of trypsin activity; also recorded: reduced trypsin activity in the intestinal wall”, the mucin2 staining levels (mucin2 [2]) was “no significant change in mucin2 staining levels” and the “villi injury / villus structure” value (mucin2 [2]) was “undetectable villi injury”. For the same molecule, the lectin staining levels [3] was “lower levels of lectin labeling as compared to SHAM; also recorded: decrease in lectin staining”, the “mucin2 protein levels (relative density, Western blot)” value (mucin2 [4]) was “reduced levels of mucin2; also recorded: reduction in mucin2 protein levels” and the “mucin13 protein levels / 17 kDa fragment (Western blot)” value (mucin13) was “no appearance of the lower molecular weight band at 17 kDA; also recorded: preservation of mucin13 protein levels”. For the same molecule, the hypoxia staining levels (intestinal villi hypoxia) was “significantly low levels of hypoxia staining as compared to SAO” and the “ATP concentration in intestinal tissue homogenates” value (from here on “ATP concentration”) [5] was “lower than SHAM and higher than SAO but it was not statistically significant”.
For `O=S(=O)(O)CCN1CCN(CCO)CC1` [HEPES buffer, HEPES], the “trypsin activity in the intestinal wall” value ([1]; SAO 30 min) was “Low levels of trypsin activity”, the “trypsin activity in the intestinal wall” value ([1]; SHAM surgery) was “minimal trypsin activity” and the mucin2 staining levels (mucin2 [2]) was “significantly lower as compared to SHAM, and they were also significantly higher than SAO”. For the same molecule, the “villi injury / villus structure” value (mucin2 [2]) was “did not have signs of villi injury”, the lectin staining levels [3] was “lower as compared to SHAM” and the “mucin2 protein levels (relative density, Western blot)” value (mucin2 [4]) was “no significant decrease in mucin2 molecule”. The “mucin13 protein levels / 17 kDa fragment (Western blot)” value (mucin13) was “no degradation of mucin13”, the hypoxia staining levels (intestinal villi hypoxia) was “significantly higher than the SHAM and SHAM-HEPES groups as well as the SAO group” and the “ATP concentration” value [5] was “significantly higher than SAO and similar to sham groups”.
`FC1(F)C(F)(F)C(F)(F)C2(F)C(F)(F)C(F)(F)C(F)(F)C(F)(F)C2(F)C1(F)F` (stereo not shown) [deoxygenated perfluorocarbon, Perfluorodecalin, reference compound] was tested, and the “trypsin activity in the intestinal wall” value ([1]; SAO 30 min) was “High levels of trypsin activity”, the “trypsin activity in the intestinal wall” value ([1]; SHAM surgery) was “minimal trypsin activity” and the mucin2 staining levels (mucin2 [2]) was “significantly lower”. For the same molecule, the lectin staining levels [3] was “significantly lower”, the “mucin2 protein levels (relative density, Western blot)” value (mucin2 [4]; [7]) was “reduced in the SAO group (SAO+PFC) as compared to sham (SHAM+PFC)” and the “mucin13 protein levels / 17 kDa fragment (Western blot)” value (mucin13; [7]) was “presented the lower molecular weight fragments at 17 kDa”. For the same molecule, the hypoxia staining levels (intestinal villi hypoxia) was “highest levels of hypoxia staining” and the “ATP concentration” value [5] was “significantly decreased”.
With `FC1(F)C(F)(F)C(F)(F)C2(F)C(F)(F)C(F)(F)C(F)(F)C(F)(F)C2(F)C1(F)F` (stereo not shown) [oxygenated perfluorocarbon, Perfluorodecalin] the “trypsin activity in the intestinal wall” value ([1]; SAO 30 min) was “prevents the appearance of trypsin activity inside the intestinal wall”, the “trypsin activity in the intestinal wall” value ([1]; SAO 30 min, listed as oxygenated perfluorcarbon) was “undetectable levels of trypsin activity” and the “trypsin activity in the intestinal wall” value ([1]; SHAM surgery) was “minimal trypsin activity”. For the same molecule, the mucin2 staining levels (mucin2 [2]) was “significantly higher as compared to SAO and SAO-PFC”, the “villi injury / villus structure” value (mucin2 [2]) was “preserve the villus structure” and the lectin staining levels [3] was “significantly higher as compared to SAO and SAO-PFC”. The “mucin2 protein levels (relative density, Western blot)” value (mucin2 [4]) was “mucin2 density levels similar to the sham; also recorded: reduces mucin2 and mucin13 degradation”, the “mucin13 protein levels / 17 kDa fragment (Western blot)” value (mucin13) was “complete disappearance or very faint levels of the 17 kDa band; also recorded: reduces mucin2 and mucin13 degradation” and the “ATP concentration” value [5] was “no reduction of ATP concentration”. For the same molecule, the “levels of MDA equivalents (TBARS)” value [6] was “significantly lower as compared to SAO or SAO+PFC” and the intestinal damage (ischemic intestine) was “minimize intestinal damage”.
For mucin, the “decrease of epithelial permeability (FITC-dextran 20 kDa accumulation on basal side over 60 min)” value (IEC-18 cells; mucin film present (400 μm, 10%, porcine stomach), p<0.05) was 30% and the E-cadherin cleavage (E-cadherin; mucin film present) was “cleavage is reduced”.
trypsin was tested, and the “increase of epithelial permeability (FITC-dextran 20 kDa accumulation on basal side over 60 min)” value (IEC-18 cells; without a mucin film) was 42% and the E-cadherin cleavage (E-cadherin; without a mucin film) was “cleaved”.
